Results as given in patent US12655139B2, “Isoxazolidines as RIPK1 inhibitors and use thereof” (SANOFI, priority 2020, dated 2026).
Structures can show the parent of a compound that is named as a salt. Where two headings read alike, the source gives them in different places.

Assays:
[1] = biological target: T1, hRIPK1 (aa 1-375) fusion protein (Homo sapiens, UniProt Q13546); test: ADP-Glo kinase assay, RIPK1 autophosphorylation; format: biochemical
T1 construct: hRIPK1 (aa 1-375) fusion protein
T1 sequence (Q13546 1-375): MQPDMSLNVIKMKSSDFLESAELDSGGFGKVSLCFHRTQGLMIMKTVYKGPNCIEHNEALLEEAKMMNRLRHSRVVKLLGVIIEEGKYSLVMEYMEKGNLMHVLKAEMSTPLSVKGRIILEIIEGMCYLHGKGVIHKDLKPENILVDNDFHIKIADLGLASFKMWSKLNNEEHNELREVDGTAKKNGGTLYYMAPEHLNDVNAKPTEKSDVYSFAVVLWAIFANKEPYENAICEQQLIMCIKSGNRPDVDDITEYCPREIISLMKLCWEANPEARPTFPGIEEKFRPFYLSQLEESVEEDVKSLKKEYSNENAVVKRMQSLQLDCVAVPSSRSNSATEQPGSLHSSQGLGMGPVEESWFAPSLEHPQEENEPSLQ
Protocol: Evaluation of Receptor-Interacting Protein Kinase 1 Inhibition.
The catalytic activity of RIPK1 was measured by monitoring the conversion of Adenosine triphosphate (ATP) to Adenosine diphosphate (ADP) due to autophosphorylation using an ADP-Glo kinase kit (Promega, catalog no. V9104).
After another 240 minutes incubation at room temperature, 5 μl Promega ADP-Glo reagent I were added to quench the reaction and deplete unconsumed ATP. After an incubation period of 30 minutes, 10 μl Promega ADP-Glo detection reagent II were added resulting in conversion of ADP to ATP, which generates a light-reaction between luciferase and luciferin. Luminescence was quantified after 30 minutes with a Pherastar FS (BMG LABTECH, Ortenberg).
The adjustment was obtained by nonlinear regression using the Levenberg Marquardt algorithm.

[2] = system: U937 cells; test: Cellular assay in U937 cells on cell death (necroptosis), TNFα/zVAD.fmk; format: cell-based
Description: Cellular Assay in U937 Cells to Measure the Activity of RIPK1-Inhibitors on Cell Death (Necroptosis).
Cell death was quantified in 96 well plates by determination of the amount of live cell using a CellTiter 96 AQueous reagent (Promega), a calorimetric method to measure the amount of live cells by reducing tetrazolium compound [3-(4,5-dimethylthiazol-2-yl)-5-(3-carboxymethoxyphenyl)-2-(4-sulfophenyl)-2H-tetrazolium, inner salt; MTS] into formazan. Absorbance of formazan was read at 490 nm. The inhibitory activity of the test compound was quantified in a concentration response curve (CRC) experiment. Compounds were obtained as 10 mM stock solutions and were diluted 1 to 10 volumes with DMSO to yield a 1 mM solution. From this solution 2 μl were diluted with 998 μl growth medium. 100 μl of 2 μM compound solution was further diluted sequentially with a dilution factor of 2.5 by adding 150 μl growth medium. A total of 10 concentrations were tested ranging from 10 μM to 0.26 nM or from 1 μM to 0.07 nM.
U937 cells were cultured in RPMI1640 Glutamax and 10% heat inactivated FBS. 50 μl cell suspension containing 1×10^6 cells/ml supplemented with 50 μM zVAD.fmk (Benzyloxycarbonyl-Val-Ala-Asp (OMe) fluoromethylketone) and 100 ng/ml recombinant human TNFα were dispensed in each well of a 96-well plate. 50 μl of compound dilutions (see above) were added and the cell suspension incubated overnight (18 to 24 hours) at 37° C., 5% CO2 in a humidified atmosphere (95% rH). High (no compound) and low control (no TNFα, zVAD.fmk) were tested with 7 replicates; all compound concentrations were tested in duplicates on each experimental plate.
CellTiter 96 Aqueous reagent was mixed (100 μl PMS (phenazine methosulfate) solution/2 ml MTS (3-(4,5-[…])-5-(3-carboxymethoxyphenyl)-2-(4-sulfophenyl)-2H-tetrazolium, inner salt) solution) and 20 μl were added per well. After 4 hours incubation at 37° C. (5% CO2 95% rH) optical density was measured at 490 nm on a microplate reader (Tecan Infinite M1000).
The % inhibition is expressed as percentage of the maximal inhibition value obtained in the absence of TNFα/zVAD.fmc.

[3] = Homo sapiens, U-937, Table 2, read-out: U937 IC50
[4] = Homo sapiens, U-937, Key compound table 4, read-out: U937 IC50 (uM) Mean

Compound	IC50 ([1]; Table 1) [nM]	IC50 [2, 3] [µM]	other results
Cn1ccc(C2CCON2C(=O)C2CCN(c3nccc(C#N)n3)CC2)n1 (racemic) [Example 007, 2-[4-[3-(1-methylpyrazol-3-yl)isoxazolidine-2-carbonyl]-1-piperidyl] pyrimidine-4-carbonitrile]	64.9	2.42	–
N#Cc1ccnc(N2CCC(C(=O)N3OCCC3c3ccc4nccn4c3)CC2)n1 (racemic) [Example 014, 2-[4-[3-imidazo[1,2-a]pyridin-6-ylisoxazolidine-2-carbonyl]-1-piperidyl] pyrimidine-4-carbonitrile TFA salt]	729	> 10	–
NC(=O)c1ccnc(N2CCC(C(=O)N3OCCC3C3CCCOC3)CC2)n1 (racemic) [Example 024, 2-[4-[3-Tetrahydropyran-3-ylisoxazolidine-2-carbonyl]-1-piperidyl]pyrimidine-4-carboxamide]	156	0.834	–
CNC(=O)c1cncc(C2CCON2C(=O)C2CCN(c3nccc(C#N)n3)CC2)c1 (racemic) [Example 042, 5-[2-[1-(4-cyanopyrimidin-2-yl)piperidine-4-carbonyl]isoxazolidin-3-yl]-N-methyl-pyridine-3-carboxamide]	193	6.01	–
NC(=O)c1ccnc(N2CCC(C(=O)N3OCCC3c3cncc(F)c3)CC2)n1 (single isomer, unassigned) [Ex. 069]	> 33000	> 10	–
N#Cc1cncc([C@@H]2CCON2C(=O)[C@@H]2CCN(c3nccc(C(N)=O)n3)C[C@@H]2F)c1 (single isomer, unassigned) [Ex. 095]	30.5	0.12	–
Cc1ccc([C@@H]2CCON2C(=O)C2CCN(c3cc(C(N)=O)ncn3)CC2)s1 (single isomer, unassigned) [Ex. 176]	22	0.00371	–
Cc1ccc(C2CCON2C(=O)C2CCN(c3ncc(C)c(C(N)=O)n3)CC2F)cn1 (single isomer, unassigned) [Ex. 185]	297	–	IC50 ([2]; Table 2, read-out: U937 IC50): 1.15 µM
N#Cc1cncc([C@@H]2CCON2C(=O)[C@H]2CCN(c3nccc(C(N)=O)n3)C[C@H]2F)c1 (single isomer, unassigned) [compound 96]	26	0.204	–
N#Cc1cncc([C@@H]2CCON2C(=O)C2CCN(c3nccc(C(=O)O)n3)CC2)c1 (single isomer, unassigned) [compound 102]	443	> 10	–
Cc1ccc(C2CCON2C(=O)C2CCN(c3ncc(C)c(C(N)=O)n3)CC2F)cn1 (single isomer, unassigned) [compound 186]	38.4	–	IC50 ([2]; Table 2, read-out: U937 IC50): 0.148 µM
N#Cc1cncc([C@@H]2CCON2C(=O)C2CCN(c3cc(C(N)=O)ncn3)CC2)c1 [Ex. 001]	32.6	0.133	–
N#Cc1cncc([C@@H]2CCON2C(=O)C2CCN(c3nccc(C(N)=O)n3)CC2)c1 [Ex. 004]	–	–	IC50 ([1]; Key compound table 4): 16 nM; IC50 [2, 4]: 0.022 µM
N#Cc1cncc([C@@H]2CCON2C(=O)C2CCN(c3nccc(C(=O)O)n3)CC2)c1 [Ex. 009]	4690	> 10	–
COC(=O)c1ccnc(N2CCC(C(=O)N3OCC[C@H]3c3cncc(C#N)c3)CC2)n1 [Ex. 010, Methyl 2-[4-[(3S)-3-(5-cyano-3-pyridyl)isoxazolidine-2-carbonyl]-1-piperidyl]pyrimidine-4-carboxylate]	12	–	IC50 ([2]; Table 2, listed as 10, read-out: U937 IC50): 0.21 µM
N#Cc1cncc([C@@H]2CCON2C(=O)C2CCN(c3nccc(C#N)n3)CC2)c1 [Ex. 011]	24.5	0.0126	–
CC1(C(=O)N2OCC[C@H]2c2cncc(C#N)c2)CCN(c2nccc(C(N)=O)n2)CC1 [Ex. 019]	23.5	0.0573	–
COC(=O)c1ccnc(N2CCC(C)(C(=O)N3OCC[C@H]3c3cncc(C#N)c3)CC2)n1 [Ex. 020, Methyl 2-[4-[(3S)-3-(5-cyano-3-pyridyl)isoxazolidine-2-carbonyl]-4-methyl-1-piperidyl]pyrimidine-4-carboxylate]	10.7	0.118	–
CC1(C(=O)N2OCC[C@H]2c2cncc(C#N)c2)CCN(c2nccc(C(=O)O)n2)CC1 [Ex. 021]	70.4	> 10	–

Compound	IC50 ([1]; Table 1) [nM]	IC50 [2, 3] [µM]	other results
N#Cc1cncc([C@@H]2CCON2C(=O)C2CCN(c3cc(C(N)=O)ccn3)CC2)c1 [Ex. 026]	62.7	1.9	–
N#CCOc1nc(N2CCC(C(=O)N3OCC[C@H]3c3cncc(C#N)c3)CC2)ncc1F [Ex. 028]	17.3	0.00105	–
N#Cc1cncc([C@@H]2CCON2C(=O)C2CCN(c3ncc(F)c(OCC(=O)O)n3)CC2)c1 [Ex. 033, 2-[2-[4-[(3S)-3-(5-Cyano-3-pyridyl)isoxazolidine-2-carbonyl]-1-piperidyl]-5-fluoro-pyrimidin-4-yl]oxyacetic acid TFA salt]	511	> 10	–
N#Cc1cncc([C@@H]2CCON2C(=O)C2CCN(c3ncc(F)c(OCC(N)=O)n3)CC2)c1 [Ex. 035]	66.1	0.183	–
N#Cc1cncc([C@@H]2CCON2C(=O)C2CCN(c3ncc(F)c(N)n3)CC2)c1 [Ex. 039]	50.1	0.18	–
Cc1cncc([C@@H]2CCON2C(=O)C2CCN(c3nccc(C(N)=O)n3)CC2)n1 [Ex. 044]	–	–	IC50 ([1]; Key compound table 4): 9 nM; IC50 [2, 4]: 0.009 µM
Cc1cncc([C@@H]2CCON2C(=O)C2CCN(c3nccc(C#N)n3)CC2)n1 [Ex. 045]	17.2	0.0664	–
Cc1cnc(N2CCC(C(=O)N3OCC[C@H]3c3cncc(C#N)c3)CC2)nc1C(N)=O [Ex. 053]	11.7	0.0561	–
NC(=O)c1ccnc(N2CCC(C(=O)N3OCC[C@H]3c3cncc(N4CCC4=O)c3)CC2)n1 [Ex. 055]	101	0.844	–
N#Cc1ccnc(N2CCC(C(=O)N3OCC[C@H]3c3cncc(N4CCC4=O)c3)CC2)n1 [Ex. 056, 2-[4-[(3S)-3-[5-(2-Oxoazetidin-1-yl)-3-pyridyl]isoxazolidine-2-carbonyl]-1-piperidyl]pyrimidine-4-carbonitrile]	42.5	2.2	–
CCOC(=O)c1ncnc(N2CCC(C(=O)N3OCC[C@H]3c3cncc(C#N)c3)CC2)c1F [Ex. 057, Ethyl 6-[4-[(3S)-3-(5-cyano-3-pyridyl)isoxazolidine-2-carbonyl]-1-piperidyl]-5-fluoro-pyrimidine-4-carboxylate]	30.9	0.11	–
N#Cc1cncc([C@@H]2CCON2C(=O)C2(F)CCN(c3ncc(F)c(C(N)=O)n3)CC2)c1 [Ex. 059]	20.8	0.0507	–
CC1(C(=O)N2OCC[C@H]2c2cncnc2)CCN(c2nccc(C(N)=O)n2)CC1 [Ex. 061]	39.1	0.256	–
COc1nc(N2CCC(C(=O)N3OCC[C@H]3c3cncnc3)CC2)ncc1F [Ex. 064]	20.4	0.0642	–
N#Cc1ccnc(N2CCC(C(=O)N3OCC[C@H]3c3cncnc3)CC2)c1 [Ex. 065]	65.6	0.612	–
N#Cc1cncc([C@@H]2CCON2C(=O)C2CCN(c3cnc(C#N)cn3)CC2)c1 [Ex. 066]	35.1	0.205	–
N#Cc1cncc([C@@H]2CCON2C(=O)C2CCN(c3cncc(C#N)n3)CC2)c1 [Ex. 067]	84.8	0.553	–
N#Cc1cncc([C@@H]2CCON2C(=O)C2CCN(c3ncc(F)c(C(N)=O)n3)CC2)c1 [Ex. 068]	–	–	IC50 ([1]; Key compound table 4): 11 nM; IC50 [2, 4]: 0.003 µM
